Assay results: patent US20100286229A1, “Modulation of Androgen Receptor for Treatment of Prostate Cancer” (priority 2005, published 2010)
Entries after “also recorded” stand apart in the source; their conditions may differ.

Key:
Type in all cases: cell-based, human
Hela cells = experiment: Growth of AR-negative Hela cells with DHT (data not shown)
p21 = p21 protein level in lysates of LNCaP cells treated with DHT; conditions: 1 nM and 10 nM DHT compared to 0 nM, 0.1 nm DHT or FBS
Source text: Thus increased activity of AR due to its overexpression or hyper-stimulation with ligand inhibits cell growth, possibly due to induction of p21.

AR [1] = experiment: ARE-Luc (AR-dependent luciferase) reporter activity in CaP cells in CSS medium with DHT
AR [2] = experiment: AR protein level in cells transduced with AR-lentivirus, CSS medium with or without DHT (Western blotting); conditions: DHT-containing media vs CSS without DHT
Protocol: (§1) Cells were plated in 6 well plates at 10^5/well. The next day, cells were transduced with concentrated GFP or AR lentiviruses, yielding 50-100% transduction efficiency. […] The medium was changed every 48 h. Cells were collected for Western blotting and luciferase assays at different time points or fixed and stained with methylene blue on day 8 after transduction.
(§2) The growth of cells overexpressing AR, cultured in CSS with no DHT, was not different from GFP expressing cells. Thus, this growth reflects the general sensitivity of certain type of cells to the presence of steroids in medium (FIG. 13A).

AR overexpressing cells = experiment: Growth of cells transduced with AR lentivirus in CSS with or without DHT; conditions: 0.3 nM DHT
Protocol: as §1, §2

CWR22R cells = experiment: Cell growth by methylene blue staining in CSS medium with DHT, CWR22R; conditions: 10 nM DHT
proteasomes = experiment: AR protein level in HeLa cell variants treated with proteasome inhibitor PS341
AR mRNA [3] = experiment: ARE-Luc reporter cotransfection with anti-AR shRNA constructs; conditions: for ARE-Luc reporter activity: C4-2 cells, control shRNAs against GFP or FasL; for ARE-Luc reporter activity on endogenous AR: LNCaP cells, 48 h, control shGFP, shFasL
Source text: Based on what was known from clinical oncology and AR mutation databases we hypothesized that complete inhibition of AR function would be toxic for both androgen-dependent and androgen-refractory prostate cancer cells, because prostate cancer cells very rarely lose AR signaling during cancer progression. To completely block AR activity in these cells we used an RNAi approach (FIG. 11). We synthesized several shRNA constructs targeting different portions of AR mRNA using a loop model (see Example 4 above).
Reporter assays were performed by transiently transfecting cells with pARE-Luc plasmid and pcDNA-3.1 hygro plasmids (empty or AR), or plasmids with shRNAs in different proportions. Transfection efficiency was normalized by citransfection of pCMV-LacZ plasmid or pEGFP-mito (Clontech). Reporter activity was measured using a Luciferase Assay System (Promega) at 48 h.

LNCaP cells = experiment: Growth after retroviral anti-AR shRNA transduction and hygromycin selection, LNCaP; conditions: retroviral vector, hygromycin selection, control anti-GFP
Source text: (§3) We confirmed that inhibition of AR signaling is growth suppressive for androgen-insensitive versions of CaP (FIG. 5). Based on what is known from clinical oncology and AR mutation databases, we hypothesized that complete inhibition of AR function would be deleterious for both androgen-dependent and androgen refractory prostate cancer cells since CaP cells very rarely loose AR signaling during progression. To estimate the dependency of prostate cancer cells on the expression of AR, we transduced them with retroviral vector expressing anti-AR siRNA with subsequent selection on hygromycin. Control cells were transduced with anti-GFP siRNA vector. Transduction efficiency was estimated in AR-negative cells, DU145.
(§4) We also estimated the dependency of prostate cancer cells on the expression of AR by transducing cells with a retroviral vector expressing anti-AR shRNA, followed by selection on hygromycin (FIG. 12). […]
(§5) For the experiments in FIG. 12, retroviral packaging and transduction were performed as follows. […] 10-14 days later, after complete death of control untransduced cells, the number of colonies was quantified, or cells were used for further experiments. […]
(§6) For the experiment in FIG. 12B, the number of colonies on each plate was counted and divided by number of colonies of AR-negative DU145 cells. […]

C4-2 cells = experiment: Growth after retroviral anti-AR shRNA transduction and hygromycin selection, C4-2; conditions: retroviral vector, hygromycin selection, control anti-GFP
Source text: as §3, §4, §5, §6

[4] = tested on: CaP cells expressing endogenous AR; experiment: Growth after retroviral anti-AR shRNA transduction and hygromycin selection, CaP cells expressing endogenous AR; conditions: retroviral vector, hygromycin selection; for growth of CaP cells expressing endogenous AR: all tested CaP cells, control anti-GFP
Source text: as §3
We also estimated the dependency of prostate cancer cells on the expression of AR by transducing cells with a retroviral vector expressing anti-AR shRNA, followed by selection on hygromycin (FIG. 12). Control cells were transduced with anti-GFP shRNA vector; transduction efficiency was estimated on AR negative cells (DU145) transduced with the same viruses.
For the experiments in FIG. 12, retroviral packaging and transduction were performed as follows. Briefly, Ampho cells (Clontech) were transfected with retroviral expression vector. Medium with virus was collected at 48 h and immediately transferred onto the target cells. 8 μg/ml of polybrene (Sigma) was added to transduced cells. 24 h later, the medium was changed with fresh medium containing the appropriate antibiotic for selecting transduced cells. 10-14 days later, after complete death of control untransduced cells, the number of colonies was quantified, or cells were used for further experiments. Retroviral shRNA vectors were generated by inserting the H1 promoter and a cassette for cloning of shRNA into the right LTR of pLPCHygro plasmid (Clontech).
For the experiment in FIG. 12B, the number of colonies on each plate was counted and divided by number of colonies of AR-negative DU145 cells. The number of colonies of cells transduced with shRNA against GFP was set as 1. DU145 cells were obtained from ATCC.

AR mRNA [5] = experiment: ARE-Luc activity with siRNAs against translated and untranslated regions of AR mRNA; conditions: C4-2 cells, endogenous AR
Source text: We next eliminated expression of the endogenous ligand-dependent AR in a way that would not affect the expression of the ARΔLBD mutant. To achieve this, we generated a series of lentiviral vectors expressing siRNA's against untranslated regions of AR mRNA that are missing in the generated ARΔLBD-expressing constructs. We tested their activity in C4-2 prostate cancer cells that have endogenous AR and in H1299 cells expressing only exogenous AR from the transduced construct. While all siRNA's against translated and untranslated regions of AR were active in inhibition of ARE-Luc activity in C4-2 cells, only siRNA's against translated regions were active in H1299 cells (FIG. 6).

endogenous AR = experiment: Knock down of endogenous AR in CaP cells infected with lentiviral siAR6 and ARΔLBD; conditions: simultaneous infection with siAR6 and ARΔLBD lentiviral vectors
Source text: To generate completely ligand independent CaP cells, we simultaneously infected cells with lentiviral vectors expressing siAR6 and ARΔLBD.

With `C[C@]12CCC(=O)C[C@@H]1CC[C@@H]1[C@@H]2CC[C@]2(C)[C@@H](O)CC[C@@H]12` [DHT, dehydrotestosterone] the “growth in response to DHT” value (Hela cells) was “not affected”, the “level of p21” value (p21) was “higher” and the “reporter induction by DHT” value (AR [1]; CWR22R and 22Rv1 cells) was “up to 3.5 fold”. For the same molecule, the “ARE-Luc reporter activation by DHT” value (AR [1]; CWR22R cells with shAR and ARDLBD) was “do not respond”, the “reporter response to addition of DHT” value (AR [1]; LNCaP, C4-2 and CWR22R cells, CSS containing 0-10 nm DHT) was “reporter activation” and the “AR levels in cells transduced with AR-lentivirus” value (AR [2]) was “reduced AR levels to those observed prior transduction”. The “growth of AR overexpressing cells compared to GFP expressing control” value (AR overexpressing cells) was “suppression of growth” and the “growth at high doses of DHT” value (CWR22R cells) was “minor growth suppressing effect”.
`CC(C)C[C@H](NC(=O)[C@H](Cc1ccccc1)NC(=O)c1cnccn1)B(O)O` [PS341] was tested, and the ARΔLBD protein level (proteasomes; HeLa cells with ARΔLBD) was “remained unchanged” and the wtAR protein level (proteasomes; HeLa cells with wtAR) was “increased; also recorded: accumulation of wild type AR protein”.
With “AR1: siRNA/shRNA against AR, sequence GCTCAAGGATGGAAGTGCA, SEQ ID NO 3, target 1108-1126 (listed as DNA, chemistry not given here)” the ARE-Luc reporter activity (AR mRNA [3]) was “inhibit ARE-Luc reporter activity”, the “ARE-Luc reporter activity on endogenous AR” value (AR mRNA [3]) was “inhibit ARE-Luc reporter activity” and the “ARE-Luc reporter activity on endogenous AR” value (AR mRNA [3]; listed as shAR1) was “maximal activity”. The cell growth (LNCaP cells) was “inhibited the growth”, the cell growth (C4-2 cells) was “inhibited the growth” and the “growth of CaP cells expressing endogenous AR” value [4] was “growth inhibitory effect; also recorded: inhibits growth”.
In the case of “AR2: siRNA/shRNA against AR, sequence GCTGCTCCGCTGACCTTAA, SEQ ID NO 4, target 1642-1660 (listed as DNA, chemistry not given here)”, the ARE-Luc reporter activity (AR mRNA [3]) was “inhibit ARE-Luc reporter activity”, the “ARE-Luc reporter activity on endogenous AR” value (AR mRNA [3]) was “inhibit ARE-Luc reporter activity” and the “ARE-Luc reporter activity on endogenous AR” value (AR mRNA [3]; listed as shAR2) was “did not completely block AR transcription”. For the same molecule, the “growth of CaP cells expressing endogenous AR” value [4] was “no inhibitory activity”.
For “AR3: siRNA/shRNA against AR, sequence TCTCTGTGCAAGTGCCCAA, SEQ ID NO 5, target 3814-3832 (listed as DNA, chemistry not given here)”, the ARE-Luc reporter activity (AR mRNA [3]) was “inhibit ARE-Luc reporter activity”, the “ARE-Luc reporter activity on endogenous AR” value (AR mRNA [3]) was “inhibit ARE-Luc reporter activity” and the “ARE-Luc reporter activity on endogenous AR” value (AR mRNA [3]; listed as shAR3) was “did not completely block AR transcription”. The “growth of CaP cells expressing endogenous AR” value [4] was “no inhibitory activity” and the “growth-inducing property on AR expressing CaP cells” value [4] was “some growth-inducing property”.
For “AR6: siRNA against untranslated region of AR mRNA, sequence GTCAGGTCTTCAGTAGCCA, SEQ ID NO 6, target 688-706 (listed as DNA, chemistry not given here)”, the “inhibition of ARE-Luc activity” value (AR mRNA [5]) was “most effective” and the “knock down of endogenous AR” value (endogenous AR) was “nearly complete knock down of endogenous AR”.
